In patent US20150045341A1, “DISUBSTITUTED ARYL AZETIDINE DERIVATIVES AS SPHINGOSINE-1 PHOSPHATE RECEPTORS MODULATORS” (Allergan, Inc., priority 2013, published 2015):
pEC50: −log10 of the molar value.

Biological target: T1, human S1P1 receptor (Homo sapiens, UniProt P21453)
T1 construct: expressed in transfected cells; membranes from cells stably expressing the S1P1 receptor
Assay: GTP γ35S binding assay for S1P1 activity
Format: biochemical
Details: membranes of cells stably expressing the S1P1 receptor, test compounds 0.08 to 5,000 nM, 30 min at 25° C.
Method: Compounds were synthesized and tested for S1P1 activity using the GTP γ^35S binding assay. These compounds may be assessed for their ability to activate or block activation of the human S1P1 receptor in cells stably expressing the S1P1 receptor.
GTP γ^35S binding was measured in the medium containing (mM) HEPES 25, pH 7.4, MgCl2 10, NaCl 100, dithiothreitol 0.5, digitonin 0.003%, 0.2 nM GTP γ^35S, and 5 μg membrane protein in a volume of 150 μl. Test compounds were included in the concentration range from 0.08 to 5,000 nM unless indicated otherwise. Membranes were incubated with 100 μM 5′-adenylylimidodiphosphate for 30 min, and subsequently with 10 μM GDP for 10 min on ice. Drug solutions and membrane were mixed, and then reactions were initiated by adding GTP γ^35S and continued for 30 min at 25° C. Reaction mixtures were filtered over Whatman GF/B filters under vacuum, and washed three times with 3 mL of ice-cold buffer (HEPES 25, pH7.4, MgCl2 10 and NaCl 100). Filters were dried and mixed with scintillant, and counted for ^35S activity using a β-counter. Agonist-induced GTP γ^35S binding was obtained by subtracting that in the absence of agonist. Binding data were analyzed using a non-linear regression method. In case of antagonist assay, the reaction mixture contained 10 nM […] in the presence of test antagonist at concentrations ranging from 0.08 to 5000 nM.

T1 sequence (P21453 whole entry): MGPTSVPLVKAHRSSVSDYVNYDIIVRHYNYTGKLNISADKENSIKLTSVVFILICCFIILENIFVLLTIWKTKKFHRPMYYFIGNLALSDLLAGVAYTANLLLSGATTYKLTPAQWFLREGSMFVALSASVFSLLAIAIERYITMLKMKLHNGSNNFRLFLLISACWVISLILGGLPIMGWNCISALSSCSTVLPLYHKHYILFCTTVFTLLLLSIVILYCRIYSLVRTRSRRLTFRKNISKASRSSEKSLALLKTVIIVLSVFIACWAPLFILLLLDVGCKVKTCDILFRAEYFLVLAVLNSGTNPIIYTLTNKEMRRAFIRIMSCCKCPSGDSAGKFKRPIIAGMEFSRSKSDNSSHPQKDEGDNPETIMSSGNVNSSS

Row | SMILES | pEC50
1 | CCCCC(CCCOc1ccc(CN2CC(C(=O)O)C2)cc1Cl)Cc1ccc(C)c(C)c1 (stereo not drawn) [1-(3-chloro-4-{[4-(3,4-dimethylbenzyl)octyl]oxy}benzyl)azetidine-3-carboxylic acid] | 8.57
2 | CCCC(CCCOc1c(C)cc(CN2CC(C(=O)O)C2)cc1C)Cc1ccc(C)c(C)c1 (stereo not drawn) [1-(4-{[4-(3,4-dimethylbenzyl)heptyl]oxy}-3,5-dimethylbenzyl)azetidine-3-carboxylic acid] | 8.69
3 | CCCCC(CCCOc1c(F)cc(CN2CC(C(=O)O)C2)cc1OC)Cc1ccc(C)c(C)c1 (stereo not drawn) [1-(4-{[4-(3,4-dimethylbenzyl)octyl]oxy}-3-fluoro-5-methoxybenzyl)azetidine-3-carboxylic acid] | 8.54
4 | CCCCC(CCCOc1ccc(CN2CC(C(=O)O)C2)cc1F)Cc1ccc(C)c(C)c1 (stereo not drawn) [1-(4-{[4-(3,4-dimethylbenzyl)octyl]oxy}-3-fluorobenzyl)azetidine-3-carboxylic acid] | 8.27
5 | CCCCC(CCCOc1ccc(CN2CC(C(=O)O)C2)cc1)Cc1ccc(C)c(C)c1 (stereo not drawn) [Compound 2, 1-(4-{[4-(3,4-Dimethylbenzyl)octyl]oxy}benzyl)azetidine-3-carboxylic acid] | 8.99
6 | CCCC(CCCOc1ccc(CN2CC(C(=O)O)C2)cc1)Cc1ccc(C)c(C)c1 (stereo not drawn) [Compound 3, 1-(4-{[4-(3,4-Dimethylbenzyl)heptyl]oxy}benzyl)azetidine-3-carboxylic acid] | 8.19
7 | CCC(CCCOc1ccc(CN2CC(C(=O)O)C2)cc1)Cc1ccc(C)c(C)c1 (stereo not drawn) [Compound 4, 1-(4-{[4-(3,4-Dimethylbenzyl)hexyl]oxy}benzyl)azetidine-3-carboxylic acid] | 7.16
8 | CCCCC(CCCOc1c(C)cc(CN2CC(C(=O)O)C2)cc1C)Cc1ccc(C)c(C)c1 (stereo not drawn) [Compound 6, 1-(4-{[4-(3,4-Dimethylbenzyl)octyl]oxy}-3,5-dimethylbenzyl)azetidine-3-carboxylic acid] | 7.93
9 | CCCC(CCCOc1ccc(CN2CC(C(=O)O)C2)cc1Cl)Cc1ccc(C)c(C)c1 (stereo not drawn) [Compound 14, 1-(3-Chloro-4-{[4-(3,4-dimethylbenzyl)heptyl]oxy}benzyl)azetidine-3-carboxylic acid] | 7.94
10 | CCCC(CCCOc1ccc(CN2CC(C(=O)O)C2)cc1C)Cc1ccc(C)c(C)c1 (stereo not drawn) [Compound 16, 1-(4-{[4-(3,4-Dimethylbenzyl)heptyl]oxy}-3-methylbenzyl)azetidine-3-carboxylic acid] | 7.67

More lines, in order of rising pEC50, values ahead:

Row | pEC50 | SMILES
11 | 6.99 | CCCCCCC(CCCOc1ccc(CN2CC(C(=O)O)C2)cc1)Cc1ccc(C)c(C)c1 (stereo not drawn) [Compound 5, 1-(4-{[4-(3,4-Dimethylbenzyl)decyl]oxy}benzyl)azetidine-3-carboxylic acid]
12 | 7.86 | CCCCCC(CCCOc1ccc(CN2CC(C(=O)O)C2)cc1Cl)Cc1ccc(C)c(C)c1 (stereo not drawn) [Compound 13, 1-(3-Chloro-4-{[4-(3,4-dimethylbenzyl)nonyl]oxy}benzyl)azetidine-3-carboxylic acid]
13 | 8.18 | CCCCC(CCCOc1ccc(CN2CC(C(=O)O)C2)cc1Br)Cc1ccc(C)c(C)c1 (stereo not drawn) [Compound 8, 1-(3-Bromo-4-{[4-(3,4-dimethylbenzyl)octyl]oxy}benzyl)azetidine-3-carboxylic acid]
14 | 8.22 | CCCCCC(CCCOc1ccc(CN2CC(C(=O)O)C2)cc1)Cc1ccc(C)c(C)c1 (stereo not drawn) [Compound 1, 1-(4-{[4-(3,4-Dimethylbenzyl)nonyl]oxy}benzyl)azetidine-3-carboxylic acid]
15 | 8.24 | CCCCC(CCCOc1ccc(CN2CC(C(=O)O)C2)cc1C)Cc1ccc(C)c(C)c1 (stereo not drawn) [Compound 7, 1-(4-{[4-(3,4-Dimethylbenzyl)octyl]oxy}-3-dimethylbenzyl)azetidine-3-carboxylic acid]
